Data as given in patent publication US20240066131A1 (Protagonist Therapeutics, Inc., priority 2020, published 2024).
Starred links: 1 amine or outer side, 2 acyl side, 3 side chain; linkers in the order of their positions; H or OH if unused. Non-standard residues stand in square brackets, D forms with d. Residues, ends and D or L forms follow the SMILES beside them. Groups on a side chain read outwards from the residue. No end group written: not given here. *: point of attachment. N_Butyl_Phe = CCCCN([C@@H](Cc1ccccc1)C(=O)[*:2])[*:1]; Ala(1H-tetrazol-5-yl) = N[C@@H](Cc1nnn[nH]1)C(=O)O; C18 diacid = O=C(O)CCCCCCCCCCCCCCCCC(=O)*; X8 = O=C([C@H](CCc1nn[nH]n1)N[*:1])[*:2]; Dip = N[C@H](C(=O)O)C(c1ccccc1)c1ccccc1; γGlu = O=C(O)[C@H](CCC(=O)[*:2])N[*:1]; His(τ-Me) = Cn1cnc(C[C@H](N)C(=O)O)c1; Gly(NCH2CH2Ph) = O=C(O)CNCCc1ccccc1; Palmitoyl = CCCCCCCCCCCCCCCC(=O)*; Myristoyl = CCCCCCCCCCCCCC(=O)*; β3hF = N[C@H](CC(=O)O)Cc1ccccc1; NMeK = CN[C@@H](CCCCN)C(=O)O; PEG4 = NCCOCCOCCOCCOCCC(=O)O; Lauroyl = CCCCCCCCCCCC(=O)*; Isovaleryl = CC(C)CC(=O)*; AEEA = NCCOCCOCC(=O)O; NHBn = c1ccc(CN*)cc1; Ahx = NCCCCCC(=O)O; NHPr = CCCN*

T1: ferroportin (Homo sapiens, UniProt Q9NP59)
T1 sequence (Q9NP59 1-571): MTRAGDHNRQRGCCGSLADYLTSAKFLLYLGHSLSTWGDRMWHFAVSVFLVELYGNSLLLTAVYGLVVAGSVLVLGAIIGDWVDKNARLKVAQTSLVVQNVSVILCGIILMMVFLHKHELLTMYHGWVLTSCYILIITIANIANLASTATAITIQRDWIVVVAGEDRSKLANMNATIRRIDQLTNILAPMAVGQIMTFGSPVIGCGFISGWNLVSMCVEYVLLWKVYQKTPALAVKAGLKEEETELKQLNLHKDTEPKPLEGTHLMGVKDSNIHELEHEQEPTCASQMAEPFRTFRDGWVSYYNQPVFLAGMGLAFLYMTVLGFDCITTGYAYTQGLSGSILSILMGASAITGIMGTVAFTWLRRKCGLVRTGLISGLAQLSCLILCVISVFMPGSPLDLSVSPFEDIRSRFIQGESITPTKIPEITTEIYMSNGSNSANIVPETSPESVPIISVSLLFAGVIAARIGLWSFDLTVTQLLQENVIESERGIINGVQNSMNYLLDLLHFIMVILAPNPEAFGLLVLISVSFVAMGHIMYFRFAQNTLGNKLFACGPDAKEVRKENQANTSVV

T2: human ferroportin (SLC40A1) fused in frame with GFP, stably expressed in HEK293 cells (human, UniProt Q9NP59 1-571)
T2 sequence (looked up): T1 sequence (Q9NP59 1-571)


Target: T1, ferroportin
Assay: FPN activity assay: internalization/degradation of ferroportin-GFP in stably transfected HEK293 cells (loss of GFP fluorescence)
Type: cell-based
Details: Table 6A; read-out: FPN EC50
Experimental: Following internalization, the ferroporin protein is degraded.
A retro inverse peptide is a peptide with a reversed sequence in all D amino acids. An example is that Hy-Glu-Thr-His-NH2 becomes Hy-DHis-DThr-DGlu-NH2. The EC50 of these reference compounds for ferroportin internalization/degradation was determined according to the FPN activity assay described above. These peptides served as control standards.

Row | Molecule | DC50 [nM]
1 | CCCCCCCCCCCCCCCC(=O)NCCOCCOCCOCCOCCC(=O)NCCCC[C@H](NC(=O)[C@@H](NC(=O)[C@H](C)NC(=O)[C@@H]1CCCN1C(=O)[C@@H](NC(=O)[C@H](Cc1c[nH]cn1)NC(=O)[C@@H](NC(=O)[C@H](CCC(=O)O)NC(=O)CC(C)C)[C@@H](C)O)C(c1ccccc1)c1ccccc1)[C@@H](C)CC)C(=O)N[C@H](CC(N)=O)Cc1ccccc1 [compound 95] (Isovaleryl-ETH[Dip]PAIK([PEG4-Palmitoyl])[β3hF]-NH2) | 32.7
2 | CCCCCCCCCCCC(=O)NCCCCCC(=O)NCCCC[C@H](NC(=O)[C@@H](NC(=O)[C@H](C)NC(=O)[C@@H]1CCCN1C(=O)[C@@H](NC(=O)[C@H](Cc1c[nH]cn1)NC(=O)[C@@H](NC(=O)[C@H](CCC(=O)O)NC(=O)CC(C)C)[C@@H](C)O)C(c1ccccc1)c1ccccc1)[C@@H](C)CC)C(=O)N[C@H](CC(N)=O)Cc1ccccc1 [compound 105] (Isovaleryl-ETH[Dip]PAIK([Ahx-Lauroyl])[β3hF]-NH2) | 109
3 | CCCCCCCCCCCCCCCC(=O)NCCCCCC(=O)NCCCC[C@H](NC(=O)C[C@H](Cc1ccccc1)NC(=O)[C@H](CCCCN)N(C)C(=O)[C@@H](NC(=O)[C@H](C)NC(=O)[C@@H]1CCCN1C(=O)[C@@H](NC(=O)[C@H](Cc1c[nH]cn1)NC(=O)[C@@H](NC(=O)[C@H](CC(C)C)NC(=O)CC(C)C)[C@@H](C)O)C(c1ccccc1)c1ccccc1)[C@@H](C)CC)C(N)=O [compound 46] (Isovaleryl-LTH[Dip]PAI[NMeK][β3hF]K([Ahx-Palmitoyl])-NH2) | 103
4 | CCCCCCCCCCCCCCCC(=O)NCCCCCC(=O)NCCCC[C@H](NC(=O)[C@@H](NC(=O)[C@H](C)NC(=O)[C@@H]1CCCN1C(=O)[C@@H](NC(=O)[C@H](Cc1c[nH]cn1)NC(=O)[C@@H](NC(=O)[C@H](CCC(=O)O)NC(=O)CC(C)C)[C@@H](C)O)C(c1ccccc1)c1ccccc1)[C@@H](C)CC)C(=O)N(CCc1ccccc1)CC(N)=O [compound 93] (Isovaleryl-ETH[Dip]PAIK([Ahx-Palmitoyl])[Gly(NCH2CH2Ph)]-NH2) | 31.9
5 | CC[C@H](C)[C@H](NC(=O)[C@H](C)NC(=O)[C@@H]1CCCN1C(=O)[C@@H](NC(=O)[C@H](Cc1c[nH]cn1)NC(=O)[C@@H](NC(=O)[C@H](CCC(=O)O)NC(=O)CC(C)C)[C@@H](C)O)C(c1ccccc1)c1ccccc1)C(=O)N[C@@H](CCCCNC(C)=O)C(N)=O [compound 12] (Isovaleryl-ETH[Dip]PAIK(Ac)-NH2) | 1040

Other lines, results leading:

Row | DC50 [nM] | Molecule
6 | 101 | CCCCCCCCCCCCCCCC(=O)NCCCCCC(=O)NCCCC[C@H](NC(=O)[C@@H](NC(=O)[C@@H](NC(=O)[C@@H]1CCCN1C(=O)[C@@H](NC(=O)[C@H](Cc1cn(C)cn1)NC(=O)[C@@H](NC(=O)[C@H](CCc1nn[nH]n1)NC(=O)CC(C)C)[C@@H](C)O)C(c1ccccc1)c1ccccc1)[C@@H](C)CC)[C@@H](C)CC)C(=O)N[C@H](CC(N)=O)Cc1ccccc1 [compound 117] (Isovaleryl-[X8]T[His(τ-Me)][Dip]PIIK([Ahx-Palmitoyl])[β3hF]-NH2)
7 | 86.8 | CCCCCCCCCCCCCCCC(=O)NCCCCCC(=O)NCCCC[C@H](NC(=O)[C@@H](NC(=O)[C@@H](NC(=O)[C@@H]1CCCN1C(=O)[C@@H](NC(=O)[C@H](Cc1c[nH]cn1)NC(=O)[C@@H](NC(=O)[C@H](Cc1nn[nH]n1)NC(=O)CC(C)C)[C@@H](C)O)C(c1ccccc1)c1ccccc1)[C@@H](C)CC)[C@@H](C)CC)C(=O)N[C@H](CC(N)=O)Cc1ccccc1 [compound 113] (Isovaleryl-[Ala(1H-tetrazol-5-yl)]TH[Dip]PIIK([Ahx-Palmitoyl])[β3hF]-NH2)

Same assay, conditions: Table 6B; read-out: FPN IC50

Row | DC50 [nM] | Molecule
8 | > 3000 | CCCCCCCCCCCCCCCC(=O)NCCCCCC(=O)NCCCC[C@H](NC(=O)C[C@H](Cc1ccccc1)NC(=O)[C@@H](CCCCN)NC(=O)[C@@H](NC(=O)[C@H](C)NC(=O)[C@@H]1CCCN1C(=O)[C@H](C)NC(=O)[C@H](Cc1c[nH]cn1)NC(=O)[C@@H](NC(=O)[C@H](CCC(=O)O)NC(=O)CC(C)C)[C@@H](C)O)[C@@H](C)CC)C(=O)N[C@H](CCCCN)C(=O)N[C@@H](C)C(N)=O [compound 151] (Isovaleryl-ETHAPAI[dK][β3hF]K([Ahx-Palmitoyl])[dK]A-NH2)

Same assay, conditions: ferroportin-GFP HEK293 cells, compound incubated at least 18 hours; read-out: FPN IC50

Row | DC50 [nM] | Molecule
9 | 86.8 | CC(C)CC(=O)N[C@@H](CCC(=O)O)C(=O)N[C@H](C(=O)N[C@@H](Cc1c[nH]cn1)C(=O)N[C@H](C(=O)N1CCC[C@H]1C(=O)N[C@H](CCCCNC(=O)COCCOCCNC(=O)COCCOCCNC(=O)CCCCCNC(=O)CCCCCCCCCCCCCCCCC(=O)O)C(=O)N[C@H](CC(N)=O)Cc1ccccc1)C(c1ccccc1)c1ccccc1)[C@@H](C)O [compound 214]
10 | 1160 | CCCCCCCCCCCCCC(=O)NCCCCCC(=O)NCCCC[C@H](NC(=O)[C@@H](NC(=O)[C@H](C)NC(=O)[C@@H]1CCCN1C(=O)[C@H](Cc1ccccc1)NC(=O)[C@H](Cc1c[nH]cn1)NC(=O)[C@@H](NC(=O)[C@H](CCC(=O)O)NC(=O)CC(C)C)[C@@H](C)O)[C@@H](C)CC)C(=O)N[C@@H](Cc1ccccc1)C(=O)N[C@@H](CCC(=O)O)C(=O)N1CCC[C@H]1C(=O)N[C@@H](CCCNC(=N)N)C(=O)N[C@@H](CO)C(=O)N[C@@H](CCCCN)C(=O)NCC(=O)N[C@@H](C)C(=O)N[C@H](CCCCN)C(N)=O [compound 245] (Isovaleryl-ETHFPAIK([Ahx-Myristoyl])FEPRSKGA[dK]-NH2)
11 | > 3000 | CC(C)CC(=O)N[C@@H](CC(C)C)C(=O)N[C@H](C(=O)N[C@@H](Cc1c[nH]cn1)C(=O)N[C@H](C(=O)N[C@@H](CCCCNC(=O)COCCOCCNC(=O)COCCOCCNC(=O)CC[C@H](NC(=O)CCCCCCCCCCCCCCCCC(=O)O)C(=O)O)C(=O)NCc1ccccc1)C(c1ccccc1)c1ccccc1)[C@@H](C)O [compound 227] (Isovaleryl-LTH[Dip]K([AEEA-AEEA-γGlu-C18 diacid])-NHBn)
12 | 37.4 | CCCCCCCCCCCCCCCC(=O)NCCCCCC(=O)NCCCC[C@H](NC(=O)[C@@H](NC(=O)[C@H](CC(C)C)NC(=O)[C@@H]1CCCN1C(=O)[C@@H](NC(=O)[C@H](Cc1c[nH]cn1)NC(=O)[C@@H](NC(=O)[C@H](CCC(=O)O)NC(=O)CC(C)C)[C@@H](C)O)C(c1ccccc1)c1ccccc1)[C@@H](C)CC)C(=O)N[C@@H](CC(C)C)C(N)=O [compound 205] (Isovaleryl-ETH[Dip]PLIK([Ahx-Palmitoyl])L-NH2)
13 | > 3000 | CCCNC(=O)[C@H](CCCCNC(=O)COCCOCCNC(=O)COCCOCCNC(=O)CC[C@H](NC(=O)CCCCCCCCCCCCCCCCC(=O)O)C(=O)O)NC(=O)[C@@H](NC(=O)[C@H](Cc1c[nH]cn1)NC(=O)[C@@H](NC(=O)[C@H](CC(C)C)NC(=O)CC(C)C)[C@@H](C)O)C(c1ccccc1)c1ccccc1 [compound 228] (Isovaleryl-LTH[Dip]K([AEEA-AEEA-γGlu-C18 diacid])-NHPr)

Target: T2, human ferroportin (SLC40A1) fused in …
Assay: cell-based or functional assay
Details: not given

Row | FPN IC50 [nM] | Molecule
14 | 1040 | Isovaleryl-LTH[Dip]P[N_Butyl_Phe] [Isovaleric Acid-L-T-H-[Dpa]-P-N_Butyl_Phe]
15 | > 3000 | Isovaleryl-LTH[Dip]K([Ahx-Palmitoyl])[N_Butyl_Phe] [Isovaleric Acid-L-T-H-[Dpa]-[Lys(Ahx_Palm)]-N_Butyl_Phe]
16 | 1020 | Octanoic_Acid-LTH[Dip]PK([Ahx-Palmitoyl])-N_Butyl_Phe [Octanoic_Acid-L-T-H-[Dpa]-P-[Lys(Ahx_Palm)]-N_Butyl_Phe]
17 | > 3000 | Heptanoic_Acid-LTH[Dip]PK([Ahx-Palmitoyl])[N_Butyl_Phe] [Heptanoic_Acid-L-T-H-[Dpa]-P-[Lys(Ahx_Palm)]-N_Butyl_Phe]
